Experimental data as given in patent publication US5659049A, “Antioxidant, antiphospholipase derivatives of ricinoleic acid” (Virginia Commonwealth University, priority 1995, dated 1997).
Structures can show the parent of a compound that is named as a salt. Values belong to the compound of their own block, whether it stands above or below them.

How the values were obtained:
[1] = Oxidation of arachidonic acid (decreased turbidity and hydroperoxide formation)
[2] = test system: PLA2; assay: Anti-PLA2 activity (comparative Table 6); assay type: biochemical; details: nd = not detectable at ≤ 500 uM; read-out: IC-50 Anti-PLA2 Activity
[3] = Anti-oxidant activity (comparative Table 6); details: read-out: IC-50 Anti-Oxidant Activity; nd = not detectable at ≤ 500 uM
[4] = Auto-oxidation of phosphatidylethanolamine; assay type: biochemical; details: for % Oxidized PE / % Unoxidized PE: 24 hrs; for % Oxidized PE: PE alone 39.3%; for % Unoxidized PE: PE alone 51.1%
[5] = target: T1, human synovial PLA2 (Homo sapiens, UniProt P14555); assay: Inhibition of human synovial PLA2 activity in vitro; assay type: biochemical; details: for IC50: each compound prepared as a sodium salt, FIG. 9, approximately
T1 construct: from tissue; host or cells: human synovial (fluid)
T1 sequence (P14555 21-144): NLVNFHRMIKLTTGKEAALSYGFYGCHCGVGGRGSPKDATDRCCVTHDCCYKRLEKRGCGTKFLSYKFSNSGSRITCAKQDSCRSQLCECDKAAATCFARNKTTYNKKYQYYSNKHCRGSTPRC
From the text: FIG. 9 is a graph illustrating the ability of the compounds of the invention to inhibit PLA2 activity in vitro.

[6] = target: T2, human synovial fluid PLA2 (SF-PLA2) (Homo sapiens, UniProt P14555); assay: Human SF-PLA2 induced mouse paw edema, oral administration; assay type: in vivo; details: for % Increase Weight: control 61%
T2 construct: intra-articular injection of human synovial fluid PLA2 (SF-PLA2) into the mouse paw; from tissue; host or cells: human synovial fluid
T2 sequence (P14555 21-144): T1 sequence (P14555 21-144)
Experimental: The mouse paw edema is inhibited in dose related fashion by increasing concentrations of RISE-1 given orally 1.0 hours before induction of the edema by SF-PLA2.

[7] = test system: human polymorphonuclear leukocytes (PMNs); assay: Inhibition of arachidonic acid release from prelabelled human PMNs; details: Leukocyte, read-out: % Inhibition of arachidonic acid release
[8] = target: T3, platelet PLA2 (Homo sapiens, UniProt P14555); assay: In vitro inhibition of PLA2 derived from platelets (FIG. 8); assay type: biochemical
T3 construct: from tissue; host or cells: platelets
T3 sequence (P14555 21-144): T1 sequence (P14555 21-144)

[9] = target: T4, human plasma PLA2 (Homo sapiens, UniProt P14555); assay: In vitro inhibition of PLA2 derived from plasma (FIG. 8); assay type: biochemical
T4 construct: from tissue; host or cells: human plasma
T4 sequence (P14555 21-144): T1 sequence (P14555 21-144)

[10] = test system: rat adjuvant induced arthritis; assay: Rat adjuvant induced arthritis; details: in vivo
[11] = test system: sperm PLA2; assay: In vitro inhibition of PLA2 derived from sperm (FIG. 8); assay type: biochemical, human
[12] = RISE-1 10 mg/kg orally 1.0 hours before SF-PLA2
[13] = RISE-1 30 mg/kg orally 1.0 hours before SF-PLA2
[14] = RISE-1 100 mg/kg orally 1.0 hours before SF-PLA2

Compound: Cc1cc(C(C)(C)C)c(O)c(C(C)(C)C)c1 [BHT, betahydroxytoluene, reference compound]
Turbidity (430 nm) ([1]; 100 uM, time 0 hrs, control 1.38): 1.31
Hydroperoxide ([1]; 100 uM, time 0 hrs, control 100): 119 nmols
Hydroperoxide ([1]; 100 uM, time 24 hrs, control 378): 112 nmols
Turbidity (430 nm) ([1]; 100 uM, time 24 hrs, control .387): 1.283

Compound: CCCCCCC(C/C=C\CCCCCCCC(=O)O)OC(=O)/C=C/C(=O)O (centres unmarked) [PX-2]
IC50 [2]: > 500 µM
IC50 [3]: > 500 µM

Compound: CCCCCCCC/C=C\CCCCCCCC(=O)OC(C/C=C\CCCCCCCC(=O)O)CCCCCC (centres unmarked) [PX-3, Ricinoleic Acid Oleic Acid Ester]
IC50 [2]: 7.2 µM
Percent Protection ([4]; 25 μM): 16%
Percent Protection ([4]; 50 μM): 16%
Percent Protection ([4]; 100 μM): 13%
Percent Protection ([4]; 250 μM): 22%
Percent Protection ([4]; 500 μM): 27%
IC50 [5]: 5 to 10 µM
IC50 [3]: > 500 µM

Compound: CCCCC/C=C\C/C=C\CCCCCCCC(=O)OC(C/C=C\CCCCCCCC(=O)O)CCCCCC (centres unmarked) [PX-4, Ricinoleic Acid Linoleic Acid Ester]
IC50 [2]: 10 µM
Percent Protection ([4]; 25 μM): 13%
Percent Protection ([4]; 50 μM): 22%
Percent Protection ([4]; 100 μM): 38%
Percent Protection ([4]; 250 μM): 53%
Percent Protection ([4]; 500 μM): 73%
IC50 [5]: 5 to 10 µM
IC50 [3]: 210 µM

Compound: CCCCCCCC/C=C\CCCCCCCCOC(=O)CCCCCCC/C=C\CC(CCCCCC)OC(=O)/C=C/C(=O)O (centres unmarked) [PX-5, Oleyl Alcohol-Ricinoleate-Fumaric Acid Diester]
IC50 [2]: 5 µM
Percent Protection ([4]; 25 μM): 28%
Percent Protection ([4]; 50 μM): 24%
Percent Protection ([4]; 100 μM): 31%
Percent Protection ([4]; 250 μM): 47%
Percent Protection ([4]; 500 μM): 62%
IC50 [5]: 5 to 10 µM
IC50 [3]: 300 µM

Compound: CCCCCCC(O)C/C=C\CCCCCCCC(=O)OC(C/C=C\CCCCCCCC(=O)O)CCCCCC (centres unmarked) [PX-6]
IC50 [2]: 4.5 µM
IC50 [3]: 300 µM

Compound: CCCCCCC(C/C=C\CCCCCCCC(=O)O)OC(=O)/C=C/C(=O)OC(C/C=C\CCCCCCCC(=O)O)CCCCCC (centres unmarked) [PX-7, Diricinoleic Acid Fumarate Diester]
IC50 [2]: 7 µM
IC50 [3]: 130 µM

Compound: CCCCCCCC/C=C\CCCCCCCCOC(=O)CCCCCCC/C=C\CC(CCCCCC)OC(=O)/C=C\C(=O)O (centres unmarked) [PX-8]
IC50 [2]: 3.5 µM
IC50 [3]: 140 µM

ED50 ([6]; mouse, po, administered single dose orally, read-out: IC50 vs PLA2 induced mouse paw edema): ~15 mg/kg
Compound: CCCCCCCC/C=C\CCCCCCCC(=O)OCC(COC(=O)CCCCCCC/C=C\CCCCCCCC)(COC(=O)CCCCCCC/C=C\CCCCCCCC)NCCS(=O)(=O)O [PX-13, TES Triolears]

Compound: CCCCC/C=C\C/C=C\CCCCCCCC(=O)OCC(N)(COC(=O)CCCCCCC/C=C\C/C=C\CCCCC)COC(=O)CCCCCCC/C=C\C/C=C\CCCCC [PX-14]
IC50 [2]: 4.4 µM
IC50 [3]: 70 µM

IC50 [3]: > 500 µM
Compound: CCCCC/C=C\C/C=C\CCCCCCCC(=O)OCC1(COC(=O)CCCCCCC/C=C\C/C=C\CCCCC)COC(=O)CN1C(=O)CCCCCCC/C=C\C/C=C\CCCCC [PX-15]

Compound: CCCCCCC(C/C=C\CCCCCCCC(=O)O)OC(=O)CCCCCCCCC(=O)O (centres unmarked) [RISE-1, Ricinoleic Acid Sebacyl Ester]
inhibition at 25 µM [7]: 0%
inhibition at 50 µM [7]: 19%
inhibition at 75 µM [7]: 38%
inhibition at 100 µM [7]: 72%
Turbidity (430 nm) ([1]; 25 uM, time 0 hrs, control 1.38): 1.33
Hydroperoxide ([1]; 25 uM, time 0 hrs, control 100): 109 nmols
Hydroperoxide ([1]; 25 uM, time 24 hrs, control 378): 437 nmols
Turbidity (430 nm) ([1]; 25 uM, time 24 hrs, control .387): .524
Turbidity (430 nm) ([1]; 50 uM, time 0 hrs, control 1.38): 1.47
Hydroperoxide ([1]; 50 uM, time 0 hrs, control 100): 109 nmols
Hydroperoxide ([1]; 50 uM, time 24 hrs, control 378): 428 nmols
Turbidity (430 nm) ([1]; 50 uM, time 24 hrs, control .387): .348
Inhibition of PLA2 derived from platelets [8]: dose related, selective in vitro inhibition
Inhibition of PLA2 derived from plasma [9]: dose related, selective in vitro inhibition
Inhibition of rat adjuvant induced arthritis [10]: does not inhibit
% Oxidized PE ([4]; 25 uM): 42.0%
% Unoxidized PE ([4]; 25 uM): 50.6%
% Oxidized PE ([4]; 100 uM): 42.4%
% Unoxidized PE ([4]; 100 uM): 49.6%
% Protection [6, 12]: 23%
% Increase Weight [6, 12]: 47%
% Protection [6, 13]: 38%
% Increase Weight [6, 13]: 38%
% Protection [6, 14]: 49%
% Increase Weight [6, 14]: 31%
Inhibition of PLA2 derived from human synovial fluid ([5]; FIG. 8): dose related, selective in vitro inhibition
IC50 [5]: 5 to 10 µM
Inhibition of PLA2 derived from sperm [11]: dose related, selective in vitro inhibition
